{"source": "patent US7829573B2", "about": "“Therapeutic combinations of antihypertensive and antiangiogenics agents” (AstraZeneca AB, priority 2000, dated 2010)", "key": {"coronary arteries": {"system": "coronary arteries", "settings": "dog, in vitro; cited from earlier work"}, "[1]": {"settings": "conscious rats, VEGF 250 μg/kg; cited from earlier work"}, "[2]": {"assay": "Measurement of blood pressure in conscious rats by radio telemetry", "assay_type": "in vivo, rat", "experimental": "Blood pressure was measured using the Data Sciences radio-telemetry equipment (Data Sciences International, Saint Paul, Minn., USA). This provides a means of measuring the blood pressure (BP), heart rate and activity of a conscious unrestrained rat remotely. The measurements obtained using this system are free from the stresses induced by surgery and restraint. The system comprises a pressure transducer (TA11PA-C40) (the ‘implant’) implanted in the abdomen of a rat which transmits a radio signal indicating the pressure in the aorta of the animal. The signal is detected by a receiver RA1010) placed under the plastic cage which houses the animal.\nRats were anaesthetised with “Fluothane™” inhalation anaesthetic. The abdomen of the rat was shaved and the skin coated with a topical disinfectant. […]\nBlood pressure data was recorded from each animal every 10 minutes throughout the study. […] This average day time blood pressure measurement for each rat was calculated over a 4 day period immediately prior to the commencement of compound dosing.\nFor the next 4 days (i.e. days 11 to 14 of compound dosing) the rats were dosed with the ACE inhibitor captopril at 30 mg/kg p.o. once daily in addition to the quinazoline compound. The average blood pressure of each rat was calculated daily and the difference between the daily calculated pressure and the starting pressure was expressed."}, "[3]": {"settings": "anaesthetised rats, 15 μg/kg bFGF; cited from earlier work"}}, "note": "Where two headings read alike, the source gives them in different places.", "data": [{"molecule": "VEGF", "values": [{"measurement": "effect on coronary arteries", "setting": "coronary arteries", "result": "dilate coronary arteries"}, {"measurement": "time to return to normal blood pressure", "setting": "[1]", "result": "≤ 20", "unit": "min"}]}, {"molecule": "COc1cc2c(Nc3ccc(Br)cc3F)ncnc2cc1OCC1CCN(C)CC1", "note": "[4-(4-bromo-2-fluoroanilino)-6-methoxy-7-(1-methylpiperidin-4-ylmethoxy)quinazoline]", "values": [{"measurement": "effect on the diastolic blood pressure in rats", "setting": "[2]; conscious male wistar rats, 12.5 mg/kg p.o. once daily for 10 days, 3 dosed rats and a control rat (FIG. 1)", "result": "increase in blood pressure"}]}, {"molecule": "C[C@H](CS)C(=O)N1CCC[C@H]1C(=O)O", "note": "[captopril, reference compound]", "values": [{"measurement": "effect of addition of ACE inhibitor on the increase in blood pressure caused by the VEGF receptor tyrosine kinase inhibitor", "setting": "[2]; captopril 30 mg/kg p.o. once daily on days 11 to 14 in addition to the quinazoline compound 12.5 mg/kg p.o.", "result": "reversed"}]}, {"molecule": "bFGF: basic fibroblast growth factor, polypeptide with endothelial cell growth promoting activity", "values": [{"measurement": "time to return to normal blood pressure", "setting": "[3]", "result": "≤ 30", "unit": "min"}]}]}
